# What was measured:
# [1] = test system: rat liver cDNAs SEQ ID NOs: 1-61; assay type: in vivo, Han/Wistar rat; conditions: Strain HW; for Maximum Abundance, SEQ ID NO 14, Clone ID 700330824: Sex F
# [2] = test system: rat liver cDNAs SEQ ID NOs: 1-61; assay type: in vivo, Han/Wistar rat; conditions: Strain HW, Sex F
smiles,measurement,setting,value
"CC(=O)Nc1cccc2c1-c1ccccc1C2 [4-AAF, 4-acetylaminofluorene]","Maximum Abundance, SEQ ID NO 15, Clone ID 700024728",[1],3
same,"Maximum Abundance, SEQ ID NO 16, Clone ID 700024834",[1],3
same,"Maximum Abundance, SEQ ID NO 19, Clone ID 700062240",[1],5
same,"Maximum Abundance, SEQ ID NO 21, Clone ID 700064131",[1],3
same,"Maximum Abundance, SEQ ID NO 22, Clone ID 700065081",[1],3
same,"Maximum Abundance, SEQ ID NO 25, Clone ID 700127949",[1],3
same,"Maximum Abundance, SEQ ID NO 26, Clone ID 700132557",[1],7
same,"Maximum Abundance, SEQ ID NO 27, Clone ID 700135733",[1],4
same,"Maximum Abundance, SEQ ID NO 28, Clone ID 700135850",[1],3
same,"Maximum Abundance, SEQ ID NO 30, Clone ID 700140375",[1],3
same,"Maximum Abundance, SEQ ID NO 31, Clone ID 700140450",[1],8
same,"Maximum Abundance, SEQ ID NO 34, Clone ID 700177158",[1],3
same,"Maximum Abundance, SEQ ID NO 37, Clone ID 700182016",[1],3
same,"Maximum Abundance, SEQ ID NO 38, Clone ID 700185871",[1],3
same,"Maximum Abundance, SEQ ID NO 41, Clone ID 700248367",[1],3
same,"Maximum Abundance, SEQ ID NO 43, Clone ID 700253694",[1],3
same,"Maximum Abundance, SEQ ID NO 44, Clone ID 700303850",[1],3
same,"Maximum Abundance, SEQ ID NO 45, Clone ID 700305380",[1],4
same,"Maximum Abundance, SEQ ID NO 48, Clone ID 700363174",[1],3
same,"Maximum Abundance, SEQ ID NO 50, Clone ID 700480077",[1],3
same,"Maximum Abundance, SEQ ID NO 51, Clone ID 700483222",[1],3
same,"Maximum Abundance, SEQ ID NO 53, Clone ID 700818852",[1],5
same,"Maximum Abundance, SEQ ID NO 54, Clone ID 700937735",[1],8
same,"Maximum Abundance, SEQ ID NO 57, Clone ID 701341861",[1],3
same,"Maximum Abundance, SEQ ID NO 58, Clone ID 701574951",[1],3
same,"Maximum Abundance, SEQ ID NO 61, Clone ID 701637512",[1],4
same,"Maximum Abundance, SEQ ID NO 14, Clone ID 700330824",[1],3
same,"Maximum Abundance, SEQ ID NO 12, Clone ID 700062506",[2],3
same,"Maximum Abundance, SEQ ID NO 13, Clone ID 700135749",[2],4
"S=C=Nc1cccc2ccccc12 [ANIT, α-naphthylisothiocyanate]","Maximum Abundance, SEQ ID NO 15, Clone ID 700024728",[1],3
same,"Maximum Abundance, SEQ ID NO 16, Clone ID 700024834",[1],3
same,"Maximum Abundance, SEQ ID NO 17, Clone ID 700059927",[1],4
same,"Maximum Abundance, SEQ ID NO 18, Clone ID 700060675",[1],4
same,"Maximum Abundance, SEQ ID NO 19, Clone ID 700062240",[1],5
same,"Maximum Abundance, SEQ ID NO 20, Clone ID 700063569",[1],3
same,"Maximum Abundance, SEQ ID NO 21, Clone ID 700064131",[1],3
same,"Maximum Abundance, SEQ ID NO 23, Clone ID 700067778",[1],3
same,"Maximum Abundance, SEQ ID NO 24, Clone ID 700123633",[1],3
same,"Maximum Abundance, SEQ ID NO 29, Clone ID 700137416",[1],4
same,"Maximum Abundance, SEQ ID NO 31, Clone ID 700140450",[1],8
same,"Maximum Abundance, SEQ ID NO 32, Clone ID 700144406",[1],4
same,"Maximum Abundance, SEQ ID NO 33, Clone ID 700175249",[1],7
same,"Maximum Abundance, SEQ ID NO 34, Clone ID 700177158",[1],3
same,"Maximum Abundance, SEQ ID NO 35, Clone ID 700179766",[1],3
same,"Maximum Abundance, SEQ ID NO 36, Clone ID 700181614",[1],3
same,"Maximum Abundance, SEQ ID NO 38, Clone ID 700185871",[1],3
same,"Maximum Abundance, SEQ ID NO 39, Clone ID 700198357",[1],3
same,"Maximum Abundance, SEQ ID NO 40, Clone ID 700230123",[1],4
same,"Maximum Abundance, SEQ ID NO 41, Clone ID 700248367",[1],3
same,"Maximum Abundance, SEQ ID NO 45, Clone ID 700305380",[1],4
same,"Maximum Abundance, SEQ ID NO 48, Clone ID 700363174",[1],3
same,"Maximum Abundance, SEQ ID NO 49, Clone ID 700478138",[1],5
same,"Maximum Abundance, SEQ ID NO 50, Clone ID 700480077",[1],3
same,"Maximum Abundance, SEQ ID NO 51, Clone ID 700483222",[1],3
same,"Maximum Abundance, SEQ ID NO 53, Clone ID 700818852",[1],5
same,"Maximum Abundance, SEQ ID NO 54, Clone ID 700937735",[1],8
same,"Maximum Abundance, SEQ ID NO 55, Clone ID 701197728",[1],3
same,"Maximum Abundance, SEQ ID NO 56, Clone ID 701257766",[1],3
same,"Maximum Abundance, SEQ ID NO 57, Clone ID 701341861",[1],3
same,"Maximum Abundance, SEQ ID NO 60, Clone ID 701597659",[1],3
same,"Maximum Abundance, SEQ ID NO 61, Clone ID 701637512",[1],4
same,"Maximum Abundance, SEQ ID NO 14, Clone ID 700330824",[1],3
same,"Maximum Abundance, SEQ ID NO 12, Clone ID 700062506",[2],3
"ClC(Cl)(Cl)Cl [CCI4, carbon tetrachloride]","Maximum Abundance, SEQ ID NO 16, Clone ID 700024834",[1],3
same,"Maximum Abundance, SEQ ID NO 18, Clone ID 700060675",[1],4
same,"Maximum Abundance, SEQ ID NO 19, Clone ID 700062240",[1],5
same,"Maximum Abundance, SEQ ID NO 23, Clone ID 700067778",[1],3
same,"Maximum Abundance, SEQ ID NO 24, Clone ID 700123633",[1],3
same,"Maximum Abundance, SEQ ID NO 25, Clone ID 700127949",[1],3
same,"Maximum Abundance, SEQ ID NO 26, Clone ID 700132557",[1],7
same,"Maximum Abundance, SEQ ID NO 27, Clone ID 700135733",[1],4
same,"Maximum Abundance, SEQ ID NO 28, Clone ID 700135850",[1],3
same,"Maximum Abundance, SEQ ID NO 29, Clone ID 700137416",[1],4
same,"Maximum Abundance, SEQ ID NO 30, Clone ID 700140375",[1],3
same,"Maximum Abundance, SEQ ID NO 31, Clone ID 700140450",[1],8
same,"Maximum Abundance, SEQ ID NO 32, Clone ID 700144406",[1],4
same,"Maximum Abundance, SEQ ID NO 33, Clone ID 700175249",[1],7
same,"Maximum Abundance, SEQ ID NO 34, Clone ID 700177158",[1],3
same,"Maximum Abundance, SEQ ID NO 36, Clone ID 700181614",[1],3
same,"Maximum Abundance, SEQ ID NO 37, Clone ID 700182016",[1],3
same,"Maximum Abundance, SEQ ID NO 38, Clone ID 700185871",[1],3
same,"Maximum Abundance, SEQ ID NO 39, Clone ID 700198357",[1],3
same,"Maximum Abundance, SEQ ID NO 40, Clone ID 700230123",[1],4
same,"Maximum Abundance, SEQ ID NO 41, Clone ID 700248367",[1],3
same,"Maximum Abundance, SEQ ID NO 42, Clone ID 700250877",[1],3
same,"Maximum Abundance, SEQ ID NO 43, Clone ID 700253694",[1],3
same,"Maximum Abundance, SEQ ID NO 44, Clone ID 700303850",[1],3
same,"Maximum Abundance, SEQ ID NO 45, Clone ID 700305380",[1],4
same,"Maximum Abundance, SEQ ID NO 46, Clone ID 700313077",[1],3
same,"Maximum Abundance, SEQ ID NO 47, Clone ID 700361225",[1],3
same,"Maximum Abundance, SEQ ID NO 48, Clone ID 700363174",[1],3
same,"Maximum Abundance, SEQ ID NO 49, Clone ID 700478138",[1],5
same,"Maximum Abundance, SEQ ID NO 50, Clone ID 700480077",[1],3
same,"Maximum Abundance, SEQ ID NO 52, Clone ID 700491990",[1],3
same,"Maximum Abundance, SEQ ID NO 53, Clone ID 700818852",[1],5
same,"Maximum Abundance, SEQ ID NO 54, Clone ID 700937735",[1],8
same,"Maximum Abundance, SEQ ID NO 56, Clone ID 701257766",[1],3
same,"Maximum Abundance, SEQ ID NO 58, Clone ID 701574951",[1],3
same,"Maximum Abundance, SEQ ID NO 59, Clone ID 701578278",[1],3
same,"Maximum Abundance, SEQ ID NO 60, Clone ID 701597659",[1],3
same,"Maximum Abundance, SEQ ID NO 61, Clone ID 701637512",[1],4
same,"Maximum Abundance, SEQ ID NO 14, Clone ID 700330824",[1],3
